Results taken from paper PMC10216581, “Homogeneous, Synthetic, Non-Saccharide Glycosaminoglycan Mimetics as Potent Inhibitors of Human Cathepsin G” (Biomolecules, 2023).
Marks after values point to notes of the source that are not given here.

Assays:
Human CatG = molecular target: T1, Human CatG (Homo sapiens, UniProt P08311); experiment: Salt dependence of CatG inhibition by NSGM 25 (ionic/nonionic binding energy); format: biochemical
T1 construct: purchased Elastin Products Company (Owensville, MO, USA)
T1 sequence (P08311 21-255): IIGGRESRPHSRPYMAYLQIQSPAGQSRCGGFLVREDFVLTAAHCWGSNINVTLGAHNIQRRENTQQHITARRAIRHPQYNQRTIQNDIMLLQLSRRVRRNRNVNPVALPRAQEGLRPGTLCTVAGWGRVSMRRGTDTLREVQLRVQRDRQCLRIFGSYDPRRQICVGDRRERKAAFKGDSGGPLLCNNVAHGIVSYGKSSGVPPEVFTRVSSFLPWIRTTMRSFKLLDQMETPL
Procedure: Each KI value was calculated from the corresponding IC50 using the Cheng–Prusoff equation [43]. A double-log plot of the KI against Na^+ concentration was prepared and analyzed using the equation log KI=log KI,NONIONIC+ZψlogNa^+ . Here, the slope corresponds to the number of ion-pair interactions (Z) and the counterions released per negative charge upon ion binding (ψ = 0.8), while the intercept corresponds to the nonionic affinity (KI,NONIONIC). The contributions of ionic and nonionic binding energies to the interactions were obtained from the slope and intercept of the plot in Excel.
A fundamental point being advanced in NSGM-based mimicry is the presumed increase in hydrophobic forces contributing to binding affinity. As is well-recognized, heparin and other GAGs utilize primarily electrostatic forces in binding to proteins. […] The resolution of overall binding energy into ionic and nonionic contributions is typically achieved by performing affinity measurements as a function of the ionic strength of the buffer. According to the protein–polyelectrolyte theory, the two contributions can be resolved from a double-log plot of binding affinity against the Na^+ concentration, as defined by the equation log KI = log KI,NONIONIC + Zψ × log [Na^+], where Z represents the number of salt interactions, and ψ is the proportion of Na^+ released per anion upon ligand binding and is equal to 0.8 for heparin [55].
Figure 6 Salt dependence of CatG inhibition by NSGM 25. (A) Salt-dependent direct inhibition of CatG by NSGM 25. Data were obtained using substrate S-7388 in a chromogenic substrate hydrolysis assay. Solid lines represent sigmoidal dose–response analysis (Equation (1)) of the data to obtain IC50, ΔY%, and HS. Errors represent ± 1 S.E. (B) A double-log plot of the KI calculated using Cheng–Rusoff equation for uncompetitive inhibition against the concentration of salt.
The measured IC50s of our allosteric inhibitors are distinct from inhibition constants KI, which are thermodynamic constants. Cheng and Prusoff provided a mathematical foundation for the transformation of IC50s into KIs for uncompetitive inhibitors. In their formulation, KI is equal to IC50 × [S]/(KM + [S]), which is directly applicable to our study. Thus, it becomes possible to utilize the linear double-log analysis described above for our NSGM 25, which is an uncompetitive inhibitor. […] Linear regression yielded a slope of 2.94 and an intercept of −4.32 (Table 5). Whereas the former corresponds to an ionic binding energy of […] at 37 °C and 100 mM salt, the latter yields a nonionic binding energy of 6.12 kcal/mol. […] Such important roles of two forces have not been observed earlier. More importantly, the higher nonionic component bodes well for the discovery of second-generation inhibitors with higher selectivity.

factor XIa = test system: factor XIa; design: method as in PMID 9790687; conditions: previous study; read-out: inhibitory potency; cited from earlier work
factor IXa = test system: factor IXa; design: method as in PMID 9790687; conditions: previous study; read-out: inhibitory potency; cited from earlier work
human plasmin = test system: human plasmin; design: method as in PMID 9790687; conditions: previous studies; cited from earlier work
[1] = linear regression of log KI versus log[Na+]

With `O=c1c(OS(=O)(=O)O)c(-c2ccc(OS(=O)(=O)O)c(OS(=O)(=O)O)c2)oc2cc(OS(=O)(=O)O)cc(OCc3ccc(COc4cc(OS(=O)(=O)O)cc5oc(-c6ccc(OS(=O)(=O)O)c(OS(=O)(=O)O)c6)c(OS(=O)(=O)O)c(=O)c45)cc3)c12` [NSGM 25] the HS (Human CatG; 50 mM NaCl) was 1.3 ± 0.4, the IC50 (Human CatG; 50 mM NaCl) was 0.043 ± 0.01 µM and the ΔY (Human CatG; 50 mM NaCl) was 87.7 ± 7.3 ^b %. The IC50 (Human CatG; 50 mM NaCl, pH 7.4, 37 °C) was 0.0427 ± 0.01 µM, the Ki (Human CatG; 50 mM NaCl, calculated from IC50 with Cheng-Prusoff equation (uncompetitive)) was 0.0109 ± 0.0039 µM and the HS (Human CatG; 100 mM NaCl) was 0.7 ± 0.1. For the same compound, the IC50 (Human CatG; 100 mM NaCl, pH 7.4, 37 °C) was 0.0526 ± 0.0122 µM, the Ki (Human CatG; 100 mM NaCl, calculated from IC50 with Cheng-Prusoff equation) was 0.0192 ± 0.0053 µM and the HS (Human CatG; 150 mM NaCl) was 1.6 ± 0.3. It also gave a ΔY (Human CatG; 150 mM NaCl) of 74.4 ± 2.9%, an IC50 (Human CatG; 150 mM NaCl, pH 7.4, 37 °C) of 0.319 ± 0.0445 µM and a Ki (Human CatG; 150 mM NaCl, calculated from IC50 with Cheng-Prusoff equation) of 0.148 ± 0.054 µM. The HS (Human CatG; 200 mM NaCl) was 2.0 ± 0.5, the ΔY (Human CatG; 200 mM NaCl) was 73.2 ± 4.9% and the IC50 (Human CatG; 200 mM NaCl, pH 7.4, 37 °C) was 3.45 ± 0.517 µM. For the same compound, the Ki (Human CatG; 200 mM NaCl, calculated from IC50 with Cheng-Prusoff equation) was 1.67 ± 0.48 µM, the ionic binding energy (Human CatG; 37 °C and 100 mM salt) was 20.4 kJ/mol and the “loss in inhibition potency” value (Human CatG; NaCl increased from 50 mM to 200 mM) was ~ 80 fold. The “ΔGNON-IONIC (nonionic binding energy)” value (Human CatG; from intercept of double-log plot) was 25.6 kJ/mol, the Intercept (Human CatG; [1]) was −4.32 and the Slope (Human CatG; [1]) was 2.94. For the same compound, the ΔGIONIC (Human CatG; share of binding energy) was 44.4%, the ΔGNON-IONIC (Human CatG; share of binding energy) was 55.6% and the IC50 (factor XIa) was greater than 150 µM. The IC50 (factor IXa) was greater than 150 µM and the IC50 (human plasmin) was roughly 6.3 µM.
